{"source": "patent US20150038527A1", "about": "“FUROPYRIDINE DERIVATIVES” (Merck Patent GmbH, priority 2012, published 2015)", "data": [{"molecular_target": "T1, SYK (Homo sapiens, UniProt P43405)", "T1 construct": "2.5 nM SYK, 400 nM Biotin-Aha-Aha-KEDPDYEWPSAKK and 10 μM ATP", "assay": "SYK Flash Plate Assay (enzyme assay)", "assay_type": "biochemical", "method": "The kinase assay is performed either as 384-well Flashplate assay (for e.g. Topcount measurement) or as 384-well Image-Flashplate assay (for LEADseeker measurement).\n2.5 nM SYK, 400 nM Biotin-Aha-Aha-KEDPDYEWPSAKK and 10 μM ATP (spiked with 0.3 μCi 33P-ATP/well) are incubated in a total volume of 50 μl (60 mM Hepes, 10 mM MgCl2, 1.2 mM Dithiothreitol, 0.02% Brij35, 0.1% BSA, pH 7.5) with or without test compound for 1 hours at 30° C. The reaction is stopped with 25 μl 200 mM EDTA. After 30 Min at 30° C. the liquid is removed and each well washed thrice with 100 μl 0.9% sodium chloride solution. Non-specific reaction is determined in presence of 0.1 μM Staurosporine. Radioactivity is measured with Topcount (when using Flashplates) or with LEADseeker (when using Image-Flashplates) respectively. Results (e.g. IC50-values) are calculated with program tools provided by the IT-department (e.g. Symyx Assay Explorer, Genedata Screener).", "units": {"IC50": "µM"}, "values": [{"molecule": "COc1ccc(C(N)=O)cc1-c1cc2nccc(-c3cc4[nH]cnc4cc3OC)c2o1", "note": "[Compound A89, 4-Methoxy-3-[7-(6-methoxy-3H-benzoimidazol-5-yl)-furo[3,2-b]pyridin-2-yl]-benzamide]", "IC50": "0.3 to 3"}, {"molecule": "COc1ccc(C#N)cc1-c1cc2nccc(-c3cc[nH]n3)c2o1", "note": "[Compound A88, 4-methoxy-3-[7-(1H-pyrazol-3-yl)-furo[3,2-b]pyridin-2-yl]-benzonitrile]", "IC50": "< 0.1"}, {"molecule": "COc1ccc(C(N)=O)cc1-c1cc2nccc(-c3ccnc(N[C@H]4CCCC[C@H]4N)c3)c2o1", "note": "[Compound A96, 3-{7-[2-((1S,2R)-2-amino-cyclohexylamino)-pyridin-4-yl]-furo[3,2-b]pyridin-2-yl}-4-methoxy-benzamide]", "IC50": "< 0.1"}, {"molecule": "COc1cc(-c2cc3nccc(-c4cccc(C(=O)NC[C@H](O)[C@@H](O)[C@H](O)[C@H](O)CO)c4)c3o2)cc(OC)c1OC", "note": "[Compound A28, N-((2S,3R,4R,5R)-2,3,4,5,6-pentahydroxy-hexyl)-3-[2-(3,4,5-trimethoxyphenyl)-furo[3,2-b]pyridin-7-yl]-benzamide]", "IC50": "3 to 50"}, {"molecule": "COc1cc(-c2cc3nccc(NC(=O)NC4CCCCC4N)c3o2)cc(OC)c1OC", "note": "(stereo not drawn) [Compound A75, 1-(2-amino-cyclohexyl)-3-[2-(3,4,5-trimethoxy-phenyl)-furo[3,2-b]pyridin-7-yl]-urea]", "IC50": "3 to 50"}, {"molecule": "COc1ccc(C(N)=O)cc1-c1cc2nccc(-c3ccc4[nH]cnc4c3)c2o1", "note": "[Compound A9, 3-[7-(1H-benzoimidazol-5-yl)-furo[3,2-b]pyridin-2-yl]-4-methoxy-benzamide]", "IC50": "< 0.1"}, {"molecule": "COc1ccc(-c2ncon2)cc1-c1cc2nccc(-c3cc[nH]n3)c2o1", "note": "[Compound A92, 2-(2-methoxy-5-[1,2,4]oxadiazol-3-yl-phenyl)-7-(1H-pyrazol-3-yl)-furo[3,2-b]pyridine]", "IC50": "< 0.1"}, {"molecule": "COc1ccc(CNCCN)cc1-c1ccnc2cc(-c3cc(OC)c(OC)c(OC)c3)oc12", "note": "[Compound A4, N1-{4-methoxy-3-[2-(3,4,5-trimethoxy-phenyl)-furo[3,2-b]pyridin-7-yl]-benzyl}-ethane-1,2-diamine]", "IC50": "0.3 to 3"}, {"molecule": "COc1ccc(C(=O)NCCN)cc1-c1cc2nccc(-c3c(OC)cccc3OC)c2o1", "note": "[Compound A71, N-(2-amino-ethyl)-3-[7-(2,6-dimethoxy-phenyl)-furo[3,2-b]pyridin-2-yl]-4-methoxy-benzamide]", "IC50": "0.3 to 3"}, {"molecule": "CCn1cc(-c2ccnc3cc(-c4cc(C(N)=O)ccc4OC)oc23)cn1", "note": "[Compound A63, 3-[7-(1-ethyl-1H-pyrazol-4-yl)-furo[3,2-b]pyridin-2-yl]-4-methoxy-benzamide]", "IC50": "0.3 to 3"}, {"molecule": "COc1cc(-c2cc3nccc(N=[N+]=[N-])c3o2)cc(OC)c1OC", "note": "[Compound A86, 7-azido-2-(3,4,5-trimethoxy-phenyl)-furo[3,2-b]pyridine]", "IC50": "3 to 50"}, {"molecule": "COc1ccc(C(N)=O)cc1-c1cc2nccc(-c3ccnc(NCCN)c3)c2o1", "note": "[Compound A80, 3-{7-[2-(2-amino-ethylamino)-pyridin-4-yl]-furo[3,2-b]pyridin-2-yl}-4-methoxybenzamide]", "IC50": "< 0.1"}, {"molecule": "COc1cc(-c2cc3nccc(-c4ccc5c(c4)[nH]c(=O)n5CCN)c3o2)cc(OC)c1OC", "note": "[Compound A37, 1-(2-amino-ethyl)-5-[2-(3,4,5-trimethoxy-phenyl)-furo[3,2-b]pyridin-7-yl]-1,3-dihydro-benzoimidazol-2-one]", "IC50": "0.3 to 3"}, {"molecule": "COc1cc(O)ccc1-c1cc2nccc(-c3cccc(C(=O)N[C@@H]4CCCC[C@@H]4N)c3)c2o1", "note": "[Compound A15, N-((1R,2S)-2-amino-cyclohexyl)-3-[2-(4-hydroxy-2-methoxy-phenyl)furo[3,2-b]pyridin-7-yl]-benzamide]", "IC50": "0.3 to 3"}, {"molecule": "COc1cc2[nH]cnc2cc1-c1ccnc2cc(-c3cc(OC)c(OC)c(OC)c3)oc12", "note": "[Compound A87, 7-(6-methoxy-1H-benzoimidazol-5-yl)-2-(3,4,5-trimethoxy-phenyl)-furo[3,2-b]pyridine]", "IC50": "0.3 to 3"}, {"molecule": "COc1ccc(OCCN)cc1-c1cc2nccc(-c3cccc(C(=O)N[C@@H]4CCCC[C@@H]4N)c3)c2o1", "note": "[Compound A51, N-((1R,2S)-2-amino-cyclohexyl)-3-{2-[5-(2-amino-ethoxy)-2-methoxy-phenyl]-furo[3,2-b]pyridin-7-yl}-benzamide]", "IC50": "0.3 to 3"}, {"molecule": "COc1cc(-c2cc3nccc(C(N)=O)c3o2)cc(OC)c1OC", "note": "[Compound A98, 2-(3,4,5-trimethoxy-phenyl)-furo[3,2-b]pyridine-7-carboxylic acid amide]", "IC50": "0.3 to 3"}, {"molecule": "CCc1ccc(OC)c(-c2cc3nccc(-c4cc(CC)ccc4OC)c3o2)c1", "note": "[Compound A30, 2,7-bis-(5-ethyl-2-methoxy-phenyl)-furo[3,2-b]pyridine]", "IC50": "3 to 50"}, {"molecule": "COc1cc(-c2cc3nccc(-c4cccc(C(=O)NC[C@@H](O)CO)c4)c3o2)cc(OC)c1OC", "note": "[Compound A17, N—((R)-2,3-dihydroxy-propyl)-3-[2-(3,4,5-trimethoxy-phenyl)-furo[3,2-b]pyridin-7-yl]-benzamide]", "IC50": "3 to 50"}, {"molecule": "COc1ccc(C(N)=O)cc1-c1cc2nccc(-c3cc[nH]n3)c2o1", "note": "[Compound A72, 4-methoxy-3-[7-(1H-pyrazol-3-yl)-furo[3,2-b]pyridin-2-yl]-benzamide]", "IC50": "< 0.1"}, {"molecule": "COc1ccc(S(N)(=O)=O)cc1-c1cc2nccc(-c3cc[nH]n3)c2o1", "note": "[Compound A82, 4-methoxy-3-[7-(1H-pyrazol-3-yl)-furo[3,2-b]pyridin-2-yl]-benzenesulfonamide]", "IC50": "< 0.1"}, {"molecule": "COc1ccc(C(C)O)cc1-c1ccnc2cc(-c3cc(OC)c(OC)c(OC)c3)oc12", "note": "(stereo not drawn) [Compound A21, 1-{4-methoxy-3-[2-(3,4,5-trimethoxy-phenyl)-furo[3,2-b]pyridin-7-yl]-phenyl}-ethanol]", "IC50": "0.1 to 0.3"}, {"molecule": "COc1ccc(S(N)(=O)=O)cc1-c1cc2nccc(-c3c(OC)cccc3OC)c2o1", "note": "[Compound A78, 3-[7-(2,6-dimethoxy-phenyl)-furo[3,2-b]pyridin-2-yl]-4-methoxybenzenesulfonamide]", "IC50": "0.3 to 3"}, {"molecule": "COc1cc(-c2cc3nccc(-c4cccc(C(=O)NCC(N)C5CC5)c4)c3o2)cc(OC)c1OC", "note": "(stereo not drawn) [Compound A23, N-(2-amino-2-cyclopropyl-ethyl)-3-[2-(3,4,5-trimethoxy-phenyl)-furo[3,2-b]pyridin-7-yl]-benzamide]", "IC50": "0.3 to 3"}, {"molecule": "CCc1ccccc1-c1cc2nccc(-c3cccc(C(=O)N[C@@H]4CCCC[C@@H]4N)c3)c2o1", "note": "[Compound A49, N-((1R,2S)-2-amino-cyclohexyl)-3-[2-(2-ethyl-phenyl)-furo[3,2-b]pyridin-7-yl]-benzamide]", "IC50": "3 to 50"}, {"molecule": "COc1cc(-c2cc3nccc(-c4ccnc(NC[C@@H]5CCCNC5)c4)c3o2)cc(OC)c1OC", "note": "[Compound A7, (R)-1-piperidin-3-ylmethyl-{4-[2-(3,4,5-trimethoxy-phenyl)-furo[3,2-b]pyridin-7-yl]-pyridin-2-yl}-amine]", "IC50": "0.3 to 3"}, {"molecule": "COc1cc(-c2cc3nccc(N4CCNCC4)c3o2)cc(OC)c1OC", "note": "[Compound A53, 7-piperazin-1-yl-2-(3,4,5-trimethoxy-phenyl)-furo[3,2-b]pyridine]", "IC50": "3 to 50"}, {"molecule": "COc1ccc(C(N)=O)cc1-c1cc2nccc(-c3cnc(F)cc3C)c2o1", "note": "[Compound A54, 3-[7-(6-fluoro-4-methyl-pyridin-3-yl)-furo[3,2-b]pyridin-2-yl]-4-methoxybenzamide]", "IC50": "3 to 50"}, {"molecule": "COc1ccc(C(N)=O)cc1-c1cc2nccc(-c3cc([C@@H](C)N)ccc3OC)c2o1", "note": "[Compound A1, 3-{7-[5-((R)-1-Amino-ethyl)-2-methoxy-phenyl]-furo[3,2-b]pyridin-2-yl}-4-methoxy-benzamide]", "IC50": "0.1 to 0.3"}, {"molecule": "COc1cc(O)ccc1-c1cc2nccc(-c3ccc4[nH]cnc4c3)c2o1", "note": "[Compound A14, 4-[7-(1H-benzoimidazol-5-yl)-furo[3,2-b]pyridin-2-yl]-3-methoxy-phenol]", "IC50": "0.3 to 3"}, {"molecule": "COc1ccc([C@@H](C)N)cc1-c1ccnc2cc(-c3cc(OC)c(OC)c(OC)c3)oc12", "note": "[Compound A100, (R)-1-{4-methoxy-3-[2-(3,4,5-trimethoxy-phenyl)-furo[3,2-b]pyridin-7-yl]-phenyl}-ethylamine]", "IC50": "0.3 to 3"}, {"molecule": "COc1ccc(C(N)=O)cc1-c1cc2nccc(-c3cc(C(=O)NCCN)ccc3OC)c2o1", "note": "[Compound A79, 3-[7-[5-(2-aminoethylcarbamoyl)-2-methoxy-phenyl]furo[3,2-b]pyridin-2-yl]-4-methoxy-benzamide]", "IC50": "0.3 to 3"}, {"molecule": "CCc1ccc(OC)cc1-c1cc2nccc(-c3ccc4[nH]cnc4c3)c2o1", "note": "[Compound A36, 7-(1H-benzoimidazol-5-yl)-2-(2-ethyl-5-methoxy-phenyl)-furo[3,2-b]pyridine]", "IC50": "3 to 50"}, {"molecule": "COC[C@@H](CNC(=O)c1cccc(-c2ccnc3cc(-c4cc(OC)c(OC)c(OC)c4)oc23)c1)NS(C)(=O)=O", "note": "[Compound A10, N—((R)-2-methanesulfonylamino-3-methoxy-propyl)-3-[2-(3,4,5-trimethoxyphenyl)-furo[3,2-b]pyridin-7-yl]-benzamide]", "IC50": "0.3 to 3"}, {"molecule": "COc1cc(-c2cc3nccc(-c4cccc(C(=O)N[C@@H]5CCCC[C@@H]5NS(C)(=O)=O)c4)c3o2)cc(OC)c1OC", "note": "[Compound A33, N-((1R,2S)-2-methanesulfonylamino-cyclohexyl)-3-[2-(3,4,5-trimethoxyphenyl)-furo[3,2-b]pyridin-7-yl]-benzamide]", "IC50": "3 to 50"}, {"molecule": "CCc1ccc(OC)cc1-c1cc2nccc(-c3cccc(C(=O)N[C@@H]4CCCC[C@@H]4N)c3)c2o1", "note": "[Compound A42, N-((1R,2S)-2-amino-cyclohexyl)-3-[2-(2-ethyl-5-methoxy-phenyl)-furo[3,2-b]pyridin-7-yl]-benzamide]", "IC50": "3 to 50"}]}]}
